Measured values published in publication PMC8445441, “Elucidating the mechanism by which synthetic helper peptides sensitize Pseudomonas aeruginosa to multiple antibiotics” (PLoS Pathogens, 2021).
Where two headings read alike, the source gives them in different places.

Legend:
P. aeruginosa AUMC-Pa-3 = experiment: microbe, parasite or virus in culture; settings: for MIC: Pseudomonas aeruginosa, AUMCPA3, 18 h, read-out: MICa: MIC of the antibiotic; for FICI / MICac: MIC of the antibiotic in the combination: strain AUMC-Pa-3; for FICI: antibiotic + D-11 (MICb/MICbc 128/4); for MICac: MIC of the antibiotic in the combination: with D-11 at MICbc 4, unit not given
Summary of the method: (§1)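 Triplicate microdilution MICs: MHB, two-fold series, equal-volume inoculum from ~1 × 10^6 CFU/mL suspension, 37 °C, 18 h, lowest concentration lacking visible growth.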

P. aeruginosa AUMC-Pa-4 = experiment: microbe, parasite or virus in culture; settings: for MIC: Pseudomonas aeruginosa, AUMCPA4, 18 h, read-out: MICa: MIC of the antibiotic; for FICI / MICac: MIC of the antibiotic in the combination: strain AUMC-Pa-4; for FICI: antibiotic + D-11 (MICb/MICbc 128/4); for MICac: MIC of the antibiotic in the combination: with D-11 at MICbc 4, unit not given
Summary of the method: as §1

P. aeruginosa AUMC-Pa-5 = experiment: microbe, parasite or virus in culture; settings: strain AUMC-Pa-5; for FICI: antibiotic + D-11 (MICb/MICbc 64/4); for MICa: MIC of the antibiotic: antibiotic alone; for MICa: MIC of the antibiotic / MICac: MIC of the antibiotic in the combination: unit not given; for MICac: MIC of the antibiotic in the combination: with D-11 at MICbc 4
Summary of the method: as §1

P. aeruginosa AUMC-Pa-6 = experiment: microbe, parasite or virus in culture; settings: strain AUMC-Pa-6; for MICa: MIC of the antibiotic: antibiotic alone; for MICa: MIC of the antibiotic / MICac: MIC of the antibiotic in the combination: unit not given; for MICac: MIC of the antibiotic in the combination: with D-11 at MICbc 4
Summary of the method: as §1

P. aeruginosa PAO1 = experiment: microbe, parasite or virus in culture; settings: PAO1; for MIC: Pseudomonas aeruginosa, PAO1, 18 h, read-out: MICa: the MIC of antibiotics, S3 Table, antibiotic alone; for FICI / MICac: the MIC for the antibiotic in the combination: S3 Table
Summary of the method: as §1

P. aeruginosa ATCC27853 = experiment: microbe, parasite or virus in culture; set-up: MICa: MIC of the antibiotic / MICac: MIC of the antibiotic in the combination: unit not given beside the values; settings: for MIC: Pseudomonas aeruginosa, ATCC27853, 18 h, read-out: MICa: MIC of the antibiotic
Summary of the method: as §1

P. aeruginosa NR-31040 = experiment: microbe, parasite or virus in culture; set-up: MICa: MIC of the antibiotic / MICac: MIC of the antibiotic in the combination: unit not given beside the values; settings: for MIC: Pseudomonas aeruginosa, NR31040, 18 h, read-out: MICa: MIC of the antibiotic; for FICI / MICac: MIC of the antibiotic in the combination: strain NR-31040; for FICI: antibiotic + D-11 (MICb/MICbc 128/4); for MICac: MIC of the antibiotic in the combination: with D-11 at MICbc 4, unit not given
Summary of the method: as §1

P. aeruginosa NR-31041 = experiment: microbe, parasite or virus in culture; set-up: MICa: MIC of the antibiotic / MICac: MIC of the antibiotic in the combination: unit not given beside the values; settings: for MIC: Pseudomonas aeruginosa, NR31041, 18 h, read-out: MICa: MIC of the antibiotic; for FICI / MICac: MIC of the antibiotic in the combination: strain NR-31041; for FICI: antibiotic + D-11 (MICb/MICbc 64/4); for MICac: MIC of the antibiotic in the combination: with D-11 at MICbc 4, unit not given
Summary of the method: as §1

P. aeruginosa PA14 = experiment: microbe, parasite or virus in culture; set-up: MICa: MIC of the antibiotic / MICac: MIC of the antibiotic in the combination: unit not given beside the values; settings: for MIC: Pseudomonas aeruginosa, PA14, 18 h, read-out: MICa: MIC of the antibiotic; for FICI / MICac: MIC of the antibiotic in the combination: strain PA14; for FICI: antibiotic + D-11 (MICb/MICbc 128/4); for MICac: MIC of the antibiotic in the combination: with D-11 at MICbc 4, unit not given
Summary of the method: as §1

P. aeruginosa PAK = experiment: microbe, parasite or virus in culture; set-up: MICa: MIC of the antibiotic / MICac: MIC of the antibiotic in the combination: unit not given beside the values; settings: for MIC: Pseudomonas aeruginosa, 18 h, read-out: MICa: MIC of the antibiotic; for FICI / MICac: MIC of the antibiotic in the combination: strain PAK; for FICI: antibiotic + D-11 (MICb/MICbc 64/4); for MICac: MIC of the antibiotic in the combination: with D-11 at MICbc 4, unit not given
Summary of the method: as §1

P. aeruginosa HM-214 = settings: strain HM-214; antibiotic + D-11 (MICb/MICbc 128/4)
Summary of the method: as §1

P. aeruginosa AUMC-Pa-1 = settings: strain AUMC-Pa-1; antibiotic + D-11 (MICb/MICbc 128/4)
Summary of the method: as §1

P. aeruginosa AUMC-Pa-2 = settings: strain AUMC-Pa-2; antibiotic + D-11 (MICb/MICbc 64/4)
Summary of the method: as §1

[1] = tested on: clinical P. aeruginosa isolates; experiment: microbe, parasite or virus in culture; settings: Pseudomonas aeruginosa, 18 h, antibiotic alone
Summary of the method: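 MIC is the lowest drug concentration showing no visible growth after 18 h at 37 °C. Two-fold dilutions in MHB were combined with an equal volume of bacterial suspension (about 1 × 10^6 CFU/mL), following CLSI broth microdilution, in triplicate.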

[2] = read-out: Antibiotic sensibility (MIC) of clinical P. aeruginosa isolate AUMC-Pa-1, strain AUMC-Pa-1
[3] = read-out: Antibiotic sensibility (MIC) of clinical P. aeruginosa isolate AUMC-Pa-2, strain AUMC-Pa-2
[4] = read-out: Antibiotic sensibility (MIC) of clinical P. aeruginosa isolate AUMC-Pa-3, strain AUMC-Pa-3
[5] = read-out: Antibiotic sensibility (MIC) of clinical P. aeruginosa isolate AUMC-Pa-4, strain AUMC-Pa-4
[6] = read-out: Antibiotic sensibility (MIC) of clinical P. aeruginosa isolate AUMC-Pa-5, strain AUMC-Pa-5
[7] = read-out: Antibiotic sensibility (MIC) of clinical P. aeruginosa isolate AUMC-Pa-6, strain AUMC-Pa-6
[8] = read-out: Antibiotic sensibility (MIC) of clinical P. aeruginosa isolate HM-214, strain HM-214
[9] = read-out: Antibiotic sensibility (MIC) of clinical P. aeruginosa isolate NR-31040, strain NR-31040
[10] = read-out: Antibiotic sensibility (MIC) of clinical P. aeruginosa isolate NR-31041, strain NR-31041

CO[C@H]1/C=C/O[C@@]2(C)Oc3c(C)c(O)c4c(O)c(c(/C=N/N5CCN(C)CC5)c(O)c4c3C2=O)NC(=O)/C(C)=C\C=C\[C@H](C)[C@H](O)[C@@H](C)[C@@H](O)[C@@H](C)[C@H](OC(C)=O)[C@@H]1C [Rifampicin]
MIC (P. aeruginosa AUMC-Pa-3): 16 µM
FICI (P. aeruginosa AUMC-Pa-3): 0.032
MICac: MIC of the antibiotic in the combination (P. aeruginosa AUMC-Pa-3): 0.016
MIC (P. aeruginosa AUMC-Pa-4): 16 µM
FICI (P. aeruginosa AUMC-Pa-4): 0.047
MICac: MIC of the antibiotic in the combination (P. aeruginosa AUMC-Pa-4): 0.25
FICI (P. aeruginosa AUMC-Pa-5): 0.563
MICa: MIC of the antibiotic (P. aeruginosa AUMC-Pa-5): 32
MICac: MIC of the antibiotic in the combination (P. aeruginosa AUMC-Pa-5): 16
MICa: MIC of the antibiotic (P. aeruginosa AUMC-Pa-6): 32
MICac: MIC of the antibiotic in the combination (P. aeruginosa AUMC-Pa-6): 2
MIC (P. aeruginosa PAO1): 32 µM
FICI (P. aeruginosa PAO1; antibiotic + 2 μM D-11): 0.064
MICac: the MIC for the antibiotic in the combination (P. aeruginosa PAO1; with 2 μM D-11): 0.0625 µM
MICac: the MIC for the antibiotic in the combination (P. aeruginosa PAO1; with 4 μM D-11): 0.01562 µM
MIC (P. aeruginosa ATCC27853): 16 µM
MIC (P. aeruginosa NR-31040): 16 µM
FICI (P. aeruginosa NR-31040): 0.063
MICac: MIC of the antibiotic in the combination (P. aeruginosa NR-31040): 0.25
MIC (P. aeruginosa NR-31041): 32 µM
FICI (P. aeruginosa NR-31041): 0.064
MICac: MIC of the antibiotic in the combination (P. aeruginosa NR-31041): 0.063
MIC (P. aeruginosa PA14): > 128 µM
FICI (P. aeruginosa PA14): 0.039
MICac: MIC of the antibiotic in the combination (P. aeruginosa PA14): 2
MIC (P. aeruginosa PAK): 16 µM
FICI (P. aeruginosa PAK): 0.066
MICac: MIC of the antibiotic in the combination (P. aeruginosa PAK): 0.063
FICI (P. aeruginosa HM-214): 0.047
FICI (P. aeruginosa AUMC-Pa-1): 0.032
FICI (P. aeruginosa AUMC-Pa-2): 0.064
MIC [1, 2]: 32 µM
MIC [1, 3]: 16 µM
MIC [1, 4]: 16 µM
MIC [1, 5]: 16 µM
MIC [1, 6]: 32 µM
MIC [1, 7]: 32 µM
MIC [1, 8]: 16 µM
MIC [1, 9]: 16 µM
MIC [1, 10]: 32 µM

CO[C@H]1/C=C/O[C@@]2(C)Oc3c(C)c(O)c4c(O)c(c(/C=N/N5CCN(C6CCCC6)CC5)c(O)c4c3C2=O)NC(=O)/C(C)=C\C=C\[C@H](C)[C@H](O)[C@@H](C)[C@@H](O)[C@@H](C)[C@H](OC(C)=O)[C@@H]1C [Rifapentine]
MIC (P. aeruginosa AUMC-Pa-3): 8 µM
FICI (P. aeruginosa AUMC-Pa-3): 0.035
MICac: MIC of the antibiotic in the combination (P. aeruginosa AUMC-Pa-3): 0.031
MIC (P. aeruginosa AUMC-Pa-4): 16 µM
FICI (P. aeruginosa AUMC-Pa-4): 0.063
MICac: MIC of the antibiotic in the combination (P. aeruginosa AUMC-Pa-4): 0.5
FICI (P. aeruginosa AUMC-Pa-5): 0.563
MICa: MIC of the antibiotic (P. aeruginosa AUMC-Pa-5): 32
MICac: MIC of the antibiotic in the combination (P. aeruginosa AUMC-Pa-5): 16
FICI (P. aeruginosa AUMC-Pa-6; antibiotic + D-11 (MICb/MICbc 64/4)): 0.188
MICa: MIC of the antibiotic (P. aeruginosa AUMC-Pa-6): 16
MICac: MIC of the antibiotic in the combination (P. aeruginosa AUMC-Pa-6): 2
MIC (P. aeruginosa PAO1): 32 µM
FICI (P. aeruginosa PAO1; antibiotic + 2 μM D-11): 0.066
FICI (P. aeruginosa PAO1; antibiotic + 4 μM D-11): 0.126
MICac: the MIC for the antibiotic in the combination (P. aeruginosa PAO1; with 2 μM D-11): 0.125 µM
MICac: the MIC for the antibiotic in the combination (P. aeruginosa PAO1; with 4 μM D-11): 0.03125 µM
MIC (P. aeruginosa ATCC27853): 32 µM
FICI (P. aeruginosa ATCC27853; strain ATCC27853, antibiotic + D-11 (MICb/MICbc 32/4)): 0.133
MICac: MIC of the antibiotic in the combination (P. aeruginosa ATCC27853; strain ATCC27853, with D-11 at MICbc 4, unit not given): 0.031
MIC (P. aeruginosa NR-31040): 8 µM
FICI (P. aeruginosa NR-31040): 0.094
MICac: MIC of the antibiotic in the combination (P. aeruginosa NR-31040): 0.5
MIC (P. aeruginosa NR-31041): 16 µM
FICI (P. aeruginosa NR-31041): 0.066
MICac: MIC of the antibiotic in the combination (P. aeruginosa NR-31041): 0.063
MIC (P. aeruginosa PA14): > 128 µM
FICI (P. aeruginosa PA14): 0.063
MICac: MIC of the antibiotic in the combination (P. aeruginosa PA14): 8
MIC (P. aeruginosa PAK): 16 µM
FICI (P. aeruginosa PAK): 0.070
MICac: MIC of the antibiotic in the combination (P. aeruginosa PAK): 0.125
FICI (P. aeruginosa HM-214): 0.063
FICI (P. aeruginosa AUMC-Pa-1): 0.035
FICI (P. aeruginosa AUMC-Pa-2): 0.066
MIC [1, 2]: 16 µM
MIC [1, 3]: 8 µM
MIC [1, 4]: 8 µM
MIC [1, 5]: 16 µM
MIC [1, 6]: 32 µM
MIC [1, 7]: 16 µM
MIC [1, 8]: 8 µM
MIC [1, 9]: 8 µM
MIC [1, 10]: 16 µM
